Source: patent US20150196668A1, “NANOMEDICINES FOR EARLY NERVE REPAIR” (Purdue Research Foundation, priority 2011, published 2015)

What was measured:
[1] = test system: PC12 cell; assay: H2O2-induced PC12 cell injury model, apoptosis (Example 1); type: cell-based
[2] = test system: primary neuron and glia cells; assay: LDH release from glutamate challenged primary neuron and glia cells; type: cell-based
Procedure: FIGS. 36A-B show rescue of glutamate challenged primary neuron and glia cells as measured by LDH release. Studies with glutamate challenged primary neuron and glial cells show efficacy of GC-MP/MP and GCMP at high concentrations and GC-MP/MP at low concentrations (FIG. 36A). MPHS is beneficial at lower concentrations. LDH release from glutamate challenged (100 umol) primary neuron and glial cells treated with GC, GC-MP, GC-MP/MP (all 1 mg/ml) and MPHS (250 ug/ml) (FIG. 36B).

SMILES	reducing cell apoptosis [1]	rescue of glutamate challenged cells, LDH release ([2]; 16 hours, GC, GC-MP, GC-MP/MP 1 mg/ml, MPHS 250 ug/ml, glutamate 100 umol)	rescue of glutamate challenged cells at low concentrations ([2]; FIG. 36A)
COc1cc(/C=C/C(=O)CC(=O)/C=C/c2ccc(O)c(OC)c2)ccc1O [curcumin]	effective in reducing cell apoptosis	–	–
C[C@H]1C[C@@H]2[C@H]([C@@H](O)C[C@@]3(C)[C@H]2CC[C@]3(O)C(=O)COC(=O)CCC(=O)O)[C@@]2(C)C=CC(=O)C=C12 [MPHS, methylprednisolone hemisuccinate]	–	not significant	beneficial
